Results from paper PMC6445106, “Structural and biochemical evidence supporting poly ADP-ribosylation in the bacterium Deinococcus radiodurans” (Nature Communications, 2019).

What was measured:
DrPARG [1] = molecular target: T1, DrPARG (Deinococcus radiodurans, UniProt Q9RZM4, T267K); test: isothermal titration calorimetry; settings: 25 °C, 20 mM Tris-HCl pH 7.0, 100 mM NaCl; independent binding model
T1 construct: gene DR_B0099, pET28a, E. coli BL21(DE3); N-terminal His-tag cut with thrombin, GSHM left at N terminus; monomer, Mr 32 kDa; residues 100-110 GGGFLGGAQAQ
Description: (§1) isothermal titration calorimetry on DrPARG

DrPARG [2] = molecular target: T2, DrPARG (Deinococcus radiodurans, UniProt Q9RZM4, T267R); test: isothermal titration calorimetry; settings: 25 °C, 20 mM Tris-HCl pH 7.0, 100 mM NaCl; independent binding model
T2 construct: gene DR_B0099, pET28a, E. coli BL21(DE3); N-terminal His-tag cut with thrombin, GSHM left at N terminus; monomer, Mr 32 kDa; residues 100-110 GGGFLGGAQAQ
Description: as §1

DrPARG [3] = molecular target: T3, DrPARG (Deinococcus radiodurans, UniProt Q9RZM4); test: isothermal titration calorimetry; settings: 25 °C, 20 mM Tris-HCl pH 7.0, 100 mM NaCl; independent binding model; complex also as PDB 5ZDC, 5ZDD, 5ZDE
T3 construct: gene DR_B0099, pET28a, E. coli BL21(DE3); N-terminal His-tag cut with thrombin, GSHM left at N terminus; monomer, Mr 32 kDa; residues 100-110 GGGFLGGAQAQ
T3 sequence (Q9RZM4 1-285): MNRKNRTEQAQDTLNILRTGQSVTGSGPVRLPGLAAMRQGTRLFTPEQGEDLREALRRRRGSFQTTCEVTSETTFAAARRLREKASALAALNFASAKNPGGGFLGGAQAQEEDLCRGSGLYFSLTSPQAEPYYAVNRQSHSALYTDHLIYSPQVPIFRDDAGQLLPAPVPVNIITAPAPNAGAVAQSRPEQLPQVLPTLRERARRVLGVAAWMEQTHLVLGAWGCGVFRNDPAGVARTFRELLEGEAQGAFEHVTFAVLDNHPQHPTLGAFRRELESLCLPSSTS
Description: as §1

DrPARG [4] = molecular target: T4, DrPARG (Deinococcus radiodurans, UniProt Q9RZM4, E112A); test: isothermal titration calorimetry; settings: 25 °C, 20 mM Tris-HCl pH 7.0, 100 mM NaCl; independent binding model
T4 construct: gene DR_B0099, pET28a, E. coli BL21(DE3); N-terminal His-tag cut with thrombin, GSHM left at N terminus; monomer, Mr 32 kDa; residues 100-110 GGGFLGGAQAQ
Description: as §1

DrPARG [5] = molecular target: T3, DrPARG; test: CD thermal denaturation at […] nm; assay type: binding; settings: 10 µM protein, 30 µM ADP-ribose, 20 mM phosphate pH 7.5; printed as "increased Tm by 46.5 °C", read as Tm of complex

T4 sequence (Q9RZM4 entry or part of it E112A): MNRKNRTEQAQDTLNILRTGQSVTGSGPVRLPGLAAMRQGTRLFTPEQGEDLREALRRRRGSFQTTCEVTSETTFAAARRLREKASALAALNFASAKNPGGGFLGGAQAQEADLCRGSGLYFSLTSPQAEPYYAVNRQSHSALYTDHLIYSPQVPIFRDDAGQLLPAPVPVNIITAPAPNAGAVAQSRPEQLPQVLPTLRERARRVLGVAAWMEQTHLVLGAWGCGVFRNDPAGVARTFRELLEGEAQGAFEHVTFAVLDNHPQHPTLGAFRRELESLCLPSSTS
T2 sequence (Q9RZM4 entry or part of it T267R): as the sequence (Q9RZM4 entry or part of it E112A) above, with A112E, T267R counted along it
T1 sequence (Q9RZM4 entry or part of it T267K): as the sequence (Q9RZM4 entry or part of it E112A) above, with A112E, T267K counted along it

Kd (DrPARG [1]): 1.98 ± 0.02 µM
Kd (DrPARG [2]): 3.76 ± 0.47 µM
Kd (DrPARG [3]): 1.78 ± 0.05 µM
Kd (DrPARG [4]): 2.02 ± 0.07 µM
Tm with ligand (apo 45.2) (DrPARG [5]): 46.5 °C
SMILES: Nc1ncnc2c1ncn2[C@@H]1O[C@H](COP(=O)(O)OP(=O)(O)OC[C@H]2OC(O)[C@H](O)[C@@H]2O)[C@@H](O)[C@H]1O (some centres unmarked) [ADP-ribose]
